This is an account of results in patent US20260256925A1, “INDAZOLE DERIVATIVES AS ESTROGEN RECEPTOR DEGRADERS” (REGENTS OF THE UNIVERSITY OF MICHIGAN, priority 2022, published 2026).

Assay [1] is described as follows: Cell growth assay, WST-8 (compounds B1-B126). The format is cell-based. To be noted: 96 h; T47D cell line, WST-8, 4 days; read-out: Cell growth inhibition in T47D cell line IC50. On the procedure:
Cell Growth Assay. The cells are seeded at certain concentration (e.g., at 1500/well) in multi-well plates overnight. Cells are subsequently treated with the compounds. A certain period of time (e.g., 4 days) after the compound treatment, 10% WST-8 reagent is added to the culture medium and incubate under certain condiction (e.g., in a CO2 incubator at 37° C. for 2.5 hours). The absorbance is measured on each sample using a microplate reader at certain wavelength (e.g., 450 nm). The relative absorbance is calculated against the vehicle control from three individually repeats.
Cell Growth Assay. The cells were seeded at 1500/well in 96 well plates overnight. One day after the seeding, they were treated with indicated doses of compounds respectively. 4 days after the compound treatment, 10% WST-8 reagent was added to the culture medium and incubate in a CO2 incubator at 37° C. for 2.5 hours. Before reading, the plate was mixed gently on an orbital shaker for one minute to ensure homogeneous distribution of color. The absorbance was measured of each sample using a microplate reader at a wavelength of 450 nm. The relative absorbance was calculated against the vehicle control from three individually repeats.

For assay [2], the target named is T1, ER (Homo sapiens, UniProt P03372).
T1 construct: endogenous in cells; probably T47D or MCF-7
T1 sequence (P03372 1-595): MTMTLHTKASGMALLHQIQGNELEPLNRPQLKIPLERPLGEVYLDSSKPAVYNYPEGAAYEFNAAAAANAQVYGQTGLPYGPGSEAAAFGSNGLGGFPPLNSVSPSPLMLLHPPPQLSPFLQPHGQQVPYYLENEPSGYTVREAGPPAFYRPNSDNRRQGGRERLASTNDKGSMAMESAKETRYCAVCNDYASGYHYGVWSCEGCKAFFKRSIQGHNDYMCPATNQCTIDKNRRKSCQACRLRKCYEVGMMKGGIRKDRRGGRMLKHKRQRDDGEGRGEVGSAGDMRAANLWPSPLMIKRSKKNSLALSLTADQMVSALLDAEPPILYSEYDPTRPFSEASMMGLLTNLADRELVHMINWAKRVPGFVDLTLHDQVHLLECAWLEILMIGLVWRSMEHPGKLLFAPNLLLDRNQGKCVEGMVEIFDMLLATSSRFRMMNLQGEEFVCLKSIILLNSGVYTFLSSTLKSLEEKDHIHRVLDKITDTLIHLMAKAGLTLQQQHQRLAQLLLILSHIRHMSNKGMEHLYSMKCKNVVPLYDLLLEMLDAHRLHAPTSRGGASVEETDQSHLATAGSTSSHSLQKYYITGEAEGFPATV
Put plainly: In-cell western blot analysis, relative ER percentage (compounds B1-B126). The format is cell-based. To be noted: ER degradation, 16 hours, read-out: ICW DC50. Here is the method:
In-cell western blot analysis. Cells are seeded in multi-well plates (e.g., at 40,000 or 10,000 cells/well). Diluted compounds at certain concentration are added (final 0.5% DMSO) and cells are incubated for a certain period of time (e.g., 16 hours). Formaldehyde (e.g., PBS: FA=9:1) is added and followed by washing with PBS. The cells are blocked with Licor blocking buffer (Li-Cor). The relative ER percentage in treated cells are obtained by comparing the values of treated wells to those in untreated and DMSO-treated wells as 100%.
In-cell western blot analysis. a. seed cells in black-sided/clear bottom 96- or 384-well plates at 40,000 or 10,000 cells/well, overnight; b. add diluted compounds (final 0.5% DMSO), 16 hours. […] RT 2h, gentle shaking. Negative control: cells plus secondary antibodies (no primary antibodies); e. wash×4 with PBS +0.05-0.1% Tween 20, gentel shaking; f. anti-rabbit-680 and anti-mouse-800 (both 1:1000 in LiCor block+0.05% Tween20, RT 1h, gentle shaking, no light. LI-COR: 0.2% to reduce background; g. wash×4 with PBS+0.05% Tween 20, gental shaking; h. add 100 μL or 25 μL of PBS to each well and read on CLX plate reader. The relative ER percentage in treated cells were obtained by comparing the values of treated wells to those in untreated and DMSO-treated wells as 100%.

Molecules are shown by their SMILES. pIC50: −log10 of the molar value.

A word on the pIC50: it is −log10 of the IC50, conventionally taken in molar units. As a reminder, the DC50 is the concentration at which degradation of the target reaches its halfway point. Turning to `C[C@@H]1Cc2c(ccc3[nH]ncc23)[C@@H](c2c(F)cc(NC3CN(C(=O)CN4CCN5c6cc7c(cc6OC[C@@H]5C4)C(=O)N(C4CCC(=O)NC4=O)C7)C3)cc2F)N1CC(F)F` (stereo partly drawn) [Compound B26, 3-((S)-3-(2-(3-((4-((6S,8R)-7-(2,2-difluoroethyl)-8-methyl-6,7,8,9-tetrahydro-3H-pyrazolo[4,3-f]isoquinolin-6-yl)-3,5-difluorophenyl)amino)azetidin-1-yl)-2-oxoethyl)-8-oxo-1,2,3,4,4a,5,8,10-octahydro-9H-pyrazino[1′,2′:4,5][1,4]oxazino[2,3-f]isoindol-9-yl)piperidine-2,6-dione], the pIC50 in assay [1] is more than 9.00. Further, the DC50 in assay [2] is less than 0.01 µM.
For `C[C@@H]1Cc2c(ccc3[nH]ncc23)[C@@H](c2c(F)cc(NC3CN(CC(=O)N4CCN5c6cc7c(cc6OC[C@@H]5C4)C(=O)N(C4CCC(=O)NC4=O)C7)C3)cc2F)N1CC(F)F` (stereo partly shown) [Compound B27], in that order: more than 9.00 and 0.01 to 0.1 µM.
Regarding `C[C@@H]1Cc2c(ccc3[nH]ncc23)[C@@H](c2c(F)cc(C3CCN(C(=O)CN4CCN5c6cc7c(cc6OC[C@@H]5C4)C(=O)N(C4CCC(=O)NC4=O)C7)CC3)cc2F)N1CC(F)F` (stereo partly drawn) [Compound B28, 3-((S)-3-(2-(4-(4-((6S,8R)-7-(2,2-difluoroethyl)-8-methyl-6,7,8,9-tetrahydro-3H-pyrazolo[4,3-f]isoquinolin-6-yl)-3,5-difluorophenyl)piperidin-1-yl)-2-oxoethyl)-8-oxo-1,2,3,4,4a,5,8,10-octahydro-9H-pyrazino[1′,2′:4,5][1,4]oxazino[2,3-f]isoindol-9-yl)piperidine-2,6-dione], the pIC50 in assay [1] is more than 9.00. Moreover, in assay [2], the DC50 lay in the range of 0.01 to 0.1 µM.
On the same counts, the results for `C[C@@H]1Cc2c(ccc3[nH]ncc23)[C@@H](c2c(F)cc(N3CCC(CN4CCN5c6cc7c(cc6N(C)C[C@@H]5C4)C(=O)N(C4CCC(=O)NC4=O)C7)CC3)cc2F)N1CC(F)F` (stereo partly drawn) [Compound B29, 3-((S)-3-((1-(4-((6S,8R)-7-(2,2-difluoroethyl)-8-methyl-6,7,8,9-tetrahydro-3H-pyrazolo[4,3-f]isoquinolin-6-yl)-3,5-difluorophenyl)piperidin-4-yl)methyl)-6-methyl-8-oxo-2,3,4,4a,5,6,8,10-octahydropyrazino[1,2-a]pyrrolo[3,4-g]quinoxalin-9(1H)-yl)piperidine-2,6-dione] are more than 9.00 and less than 0.01 µM.
As to `C[C@@H]1Cc2c(ccc3[nH]ncc23)[C@@H](c2c(F)cc(N3CCC(CN4CCN5c6ccc7c(c6N(C)C[C@@H]5C4)CN(C4CCC(=O)NC4=O)C7=O)CC3)cc2F)N1CC(F)F` (stereo partly drawn) [Compound B30, 3-((S)-7-((1-(4-((6S,8R)-7-(2,2-difluoroethyl)-8-methyl-6,7,8,9-tetrahydro-3H-pyrazolo[4,3-f]isoquinolin-6-yl)-3,5-difluorophenyl)piperidin-4-yl)methyl)-4-methyl-1-oxo-3,4,5,5a,6,7,8,9-octahydropyrazino[1,2-a]pyrrolo[3,4-f]quinoxalin-2(1H)-yl)piperidine-2,6-dione], in assay [1], the pIC50 is 8.00 to 9.00. Also, the DC50 in assay [2] was less than 0.01 µM.
For `C[C@@H]1Cc2c(ccc3[nH]ncc23)[C@@H](c2c(F)cc(N3CCN(C(=O)CN4CCN5c6cc7c(cc6OC[C@@H]5C4)C(=O)N(C4CCC(=O)NC4=O)C7)CC3)cc2F)N1CC(F)F` (stereo partly shown) [Compound B31], in that order: more than 9.00 and 0.01 to 0.1 µM.
Turning to `C[C@@H]1Cc2c(ccc3[nH]ncc23)[C@@H](c2c(F)cc(N3CCN(CC(=O)N4CCN5c6cc7c(cc6OC[C@@H]5C4)C(=O)N(C4CCC(=O)NC4=O)C7)CC3)cc2F)N1CC(F)F` (stereo partly drawn) [Compound B32, 3-((S)-3-(2-(4-(4-((6S,8R)-7-(2,2-difluoroethyl)-8-methyl-6,7,8,9-tetrahydro-3H-pyrazolo[4,3-f]isoquinolin-6-yl)-3,5-difluorophenyl)pipcrazin-1-yl)acetyl)-8-oxo-1,2,3,4,4a,5,8,10-octahydro-9H-pyrazino[1′,2′:4,5][1,4]oxazino[2,3-f]isoindol-9-yl)piperidine-2,6-dione], the pIC50 in assay [1] is more than 9.00. Also, in assay [2], the DC50 was less than 0.01 µM.
On the same counts, the results for `C[C@@H]1Cc2c(ccc3[nH]ncc23)[C@@H](c2c(F)cc(N3CC4(CCN(CC(=O)N5CCN6c7cc8c(cc7OC[C@@H]6C5)C(=O)N(C5CCC(=O)NC5=O)C8)CC4)C3)cc2F)N1CC(F)F` (stereo partly drawn) [Compound B33, 3-((S)-3-(2-(2-(4-((6S,8R)-7-(2,2-difluoroethyl)-8-methyl-6,7,8,9-tetrahydro-3H-pyrazolo[4,3-f]isoquinolin-6-yl)-3,5-difluorophenyl)-2,7-diazaspiro[3.5]nonan-7-yl)acetyl)-8-oxo-1,2,3,4,4a,5,8,10-octahydro-9H-pyrazino[1′,2′:4,5][1,4]oxazino[2,3-f]isoindol-9-yl)piperidine-2,6-dione] are more than 9.00 and less than 0.01 µM.
For `C[C@@H]1Cc2c(ccc3[nH]ncc23)[C@@H](c2c(F)cc(N3CC4(CN(C(=O)CN5CCN6c7cc8c(cc7OC[C@@H]6C5)C(=O)N(C5CCC(=O)NC5=O)C8)C4)C3)cc2F)N1CC(F)F` (stereo partly drawn) [Compound B34, 3-((S)-3-(2-(6-(4-((6S,8R)-7-(2,2-difluoroethyl)-8-methyl-6,7,8,9-tetrahydro-3H-pyrazolo[4,3-f]isoquinolin-6-yl)-3,5-difluorophenyl)-2,6-diazaspiro[3.3]heptan-2-yl)-2-oxoethyl)-8-oxo-1,2,3,4,4a,5,8,10-octahydro-9H-pyrazino[1′,2′:4,5][1,4]oxazino[2,3-f]isoindol-9-yl)piperidine-2,6-dione], in that order: more than 9.00 and less than 0.01 µM.
On the same counts, the results for `C[C@H]1Cc2c(ccc3[nH]ncc23)[C@H](c2ccc(NC3CN(C(=O)CN4CCN5c6cc7c(cc6OC[C@@H]5C4)C(=O)N(C4CCC(=O)NC4=O)C7)C3)cn2)N1CC(F)(F)F` (stereo partly drawn) [Compound B35, 3-((S)-3-(2-(3-((6-((6R,8S)-8-methyl-7-(2,2,2-trifluoroethyl)-6,7,8,9-tetrahydro-3H-pyrazolo[4,3-f]isoquinolin-6-yl)pyridin-3-yl)amino)azetidin-1-yl)-2-oxoethyl)-8-oxo-1,2,3,4,4a,5,8,10-octahydro-9H-pyrazino[1′,2′:4,5][1,4]oxazino[2,3-f]isoindol-9-yl)piperidine-2,6-dione] are less than 8.00 and 0.01 to 0.1 µM.
As for `C[C@@H]1Cc2c(ccc3[nH]ncc23)[C@@H](c2c(F)cc(N3CC4(CCN(C(=O)CN5CCN6c7cc8c(cc7OC[C@@H]6C5)C(=O)N(C5CCC(=O)NC5=O)C8)C4)C3)cc2F)N1CC(F)F` (stereo partly drawn) [Compound B36, 3-((S)-3-(2-(2-(4-((6S,8R)-7-(2,2-difluoroethyl)-8-methyl-6,7,8,9-tetrahydro-3H-pyrazolo[4,3-f]isoquinolin-6-yl)-3,5-difluorophenyl)-2,6-diazaspiro[3.4]octan-6-yl)-2-oxoethyl)-8-oxo-1,2,3,4,4a,5,8,10-octahydro-9H-pyrazino[1′,2′:4,5][1,4]oxazino[2,3-f]isoindol-9-yl)piperidine-2,6-dione], the pIC50 in assay [1] is more than 9.00. In assay [2], the DC50 was less than 0.01 µM.
